Measured values taken from patent US20040106198A1, “Inhibition of peptide cleavage in plants” (LARGE SCALE BIOLOGY CORPORATION, priority 2002, published 2004).
Numbered stars: 1 amine (or outer) side, 2 acyl side, 3 side chain; on linkers, the order of the positions; unused ones are H or OH. Square brackets hold non-standard residues; d marks the D form. Peptide text beside a SMILES is read from it. * marks the point of attachment. Sta = CC(C)C[C@H](N)[C@@H](O)CC(=O)O; pNA = O=[N+]([O-])c1ccc(N*)cc1; Suc = O=C(CCC(=O)[*:2])[*:1]; Isovaleryl = CC(C)CC(=O)*; Cbz = O=C(OCc1ccccc1)*; CK = not defined here

What follows are compounds tested on Nicotianalisin (assay: Protease inhibitor study in plant interstitial fluid (IF), N-Suc-AAPL-p-NA hydrolysis). Conditions: not given.
Type: biochemical, N. benthamiana
Protocol: To further classify the protease activity in the plant IF extract, protease inhibitor studies were performed. Standard inhibitors from different classes of proteases were used. An aliquot of the plant IF was incubated with each inhibitor for 30 min at 24° C., and the free enzyme was incubated under the same conditions without the inhibitor to serve as the control. The protease activity after the inhibition was measured and compared to the control.
To further characterize the plant proteolytic activity, experiments were initiated to partially purify the plant protease. In order to purify the protease, enzyme assays were developed and utilized. Proteolytic activity was monitored by the hydrolysis of a synthetic substrate, hydrolysis of a protein substrate and/or by an in situ gel procedure. […] The absorbance of the p-nitroaniline (p-NA) produced was measured at 410 nm (Erlanger, Kokowsky, and Cohen, 1961; Nakajima et al., 1979). The activity unit was defined as the amount of the enzyme capable of producing 1 nanomole of p-NA per min under the conditions of the experiment with an absorption coefficient of […] (Erlanger, Kokowsky, and Cohen, 1961; Nakajima et al., 1979). The rate of hydrolysis of N-Succinyl-Ala-Ala-Pro-Phe-thiobenzylester SEQ ID NO: in 10% DMSO and 4,4′-dithiodipyridine was monitored at […] using an extinction coefficient of 19800 cm^−1 M^−1 (Barrett and Kirschke, 1981). General proteolytic activity was measured with 2.0% azocasein or 2.0% azoalbumin and Fluorescein Isothiocyanate Casein (FITC-casein; (Twining, 1984)). The reaction was started by addition of 10 μl of protease solution to 70 μl of reaction mixture (100 mM buffer Tris-HCl pH 7.0 containing 0.04% FTC-casein, 0.5 mM DDT, 2 mM CaCl2) and incubation for 1 hr at 37° C. The reaction was stopped by addition of 80 μl of 10% TCA and incubation for 15 min at −20° C. The mixture was centrifuged for 10 min at 10,000×g at 4° C. 10 μl of the supernatant solution was added to 150 μl Tris-HCl (0.5 M, pH 8.5), and fluorescence was measured at an excitation wavelength of 490 nm and an emission wavelength of 525 nm using a fluorescence plate reader ((Erlanger, Kokowsky, and Cohen, 1961; Nakajima et al., 1979), Molecular Devices).

Compound	% Inhibition [%]
Cc1ccc(S(=O)(=O)N[C@@H](CCCCN)C(=O)CCl)cc1 [TLCK]	0

Same assay, conditions: IF from viral vector-infected plants incubated with inhibitor 30 min at 24° C.; 0.3 mM N-Suc-AAPL-p-NA

Compound	% Inhibition [%]
c1cnc2c(c1)ccc1cccnc12 [1-10 Phenantrolin]	11
O=c1oc(Cl)c(Cl)c2ccccc12 [3-4 DCI]	100
CC(C)C[C@@H](N)[C@H](O)C(=O)N[C@H](C(=O)N[C@H](C(=O)N[C@@H](CC(=O)O)C(=O)O)C(C)C)C(C)C [Amastatin]	5
CC(C)C[C@H](NC(=O)[C@@H](NC(=O)N[C@@H](Cc1ccccc1)C(=O)O)[C@@H]1CCN=C(N)N1)C(=O)N[C@H](C=O)Cc1ccccc1 [Chymostatin]	100
CC(C)C[C@H](NC(=O)[C@H]1O[C@@H]1C(=O)O)C(=O)NCCCCN=C(N)N [E-64]	5
O=C(O)CN(CCN(CC(=O)O)CC(=O)O)CC(=O)O [EDTA]	5
CC(C)C[C@H](NC(=O)N[C@H](C(=O)N[C@@H](CCC(N)=O)C(=O)N[C@@H](C)C=O)[C@@H]1CCNC(=N)N1)C(=O)O [Elastinal]	41
CC(=O)N[C@@H](CC(C)C)C(=O)N[C@@H](CC(C)C)C(=O)N[C@H](C=O)CCCNC(=N)N [Leupeptin]	18
O=S(=O)(F)Cc1ccccc1 [PMSF, phenylmethanesulfonyl fluoride]	100
CC(C)CC(=O)N[C@H](C(=O)N[C@H](C(=O)N[C@@H](CC(C)C)[C@@H](O)CC(=O)N[C@@H](C)C(=O)N[C@@H](CC(C)C)[C@@H](O)CC(=O)O)C(C)C)C(C)C [Pepstatin A] (Isovaleryl-VV[Sta]A[Sta]-OH)	6
Cc1ccc(S(=O)(=O)N[C@@H](Cc2ccccc2)C(=O)CCl)cc1 [TPCK]	38
Aprotinin	46
N-CBZ-GGF-CK: irreversible serine protease inhibitor, active site titrant (Cbz-Gly-Gly-Phe-{CK}; reading uncertain; also: printed as N-CBZ-GGF-CK)	70

What follows are compounds tested on plant protease (assay: In vitro stability of recombinant hGH in IF with protease inhibitors (Western)). Conditions: 24 hours at 24° C. followed by 120 hours at 5° C.; anti-hGH Western.
Type: biochemical, N. benthamiana
Protocol: FIG. 1 depicts the in vitro stability of expressed recombinant human growth hormone protein (hereafter “hGH”) in the interstitial fluid (hereafter “IF”) following the addition of protease inhibitors. Recombinant hGH protein was expressed in N. benthamiana using a tobacco mosaic virus (hereafter “TMV”) vector expression system. IF was prepared from plant leaves at 9 days post-inoculation and incubated for 24 hours at 24° C. followed by 120 hours at 5° C. with or without the addition of protease inhibitors. Fifteen microliters of the IF extract was separated by SDS-PAGE and the gel prepared for Western analysis. The levels of hGH protein in the IF of the time zero control (lane a), in absence of inhibitor (lane b), and in the presence of protease inhibitors chymostatin (lane c) and PI-I (lane d), were detected using anti-hGH antibody.
When a plant viral vector expression system (Kumagai et al., 1995; McCormick et al., 1999) was utilized to express the secreted, mammalian recombinant protein, hGH, significant degradation of the target protein was observed. […]
Aliquots of the plant IF fraction were separated by SDS-PAGE and levels of hGH protein were detected by immunoblot analysis using anti-hGH polyclonal antibody (Sigma, St. Louis, Mo.). […]
At zero time, prior to the addition of any inhibitors, both full length and hGH cleavage products were detected (FIG. 1). […]

Compound	inhibition of degradation of hGH protein in IF extract
CC(C)C[C@H](NC(=O)[C@@H](NC(=O)N[C@@H](Cc1ccccc1)C(=O)O)[C@@H]1CCN=C(N)N1)C(=O)N[C@H](C=O)Cc1ccccc1 [Chymostatin]	inhibition of further degradation of the intact hGH protein was observed

The compounds below were run on Nicotianalisin (assay: In situ Zymogram gelatin gel assay of partially purified protease). Conditions: 2 mM PMSF for 1 hr at 24° C.; partially purified fraction.
Type: biochemical, N. benthamiana
Protocol: FIG. 2 depicts the inhibition of Nicotianalisin by PMSF protease inhibitor using Zymogram gelatin gel analysis. Plant extracts containing Nicotianalisin activity were partially purified by ion-exchange chromatography at pH 5.2, and fractions with peak protease activity were treated with or without 2 mM PMSF for 1 hr at 24° C. Following treatment, aliquots were removed and inhibitory activity assessed on Zymogram gels.
The in situ protease gel assay was carried out in pre-cast 10% Zymogram gels (Invitrogen, Carlsbad, Calif.) as per manufacturer's protocols.
Following the initial observation that the plant protease activity was inhibited by both chymostatin and potato PI-I (FIG. 1), experiments were initiated to partially purify the protease from N. benthamiana leaves. Plants were grown and IF extracts were prepared as described above. The IF was filtered through a 0.8μ Sartorius GF membrane to remove most of the Ribulose-1,5-bisphosphate carboxylase/oxygenase (Rubisco) and green pigments. The diafiltered extract was separated further by SP sepharose (Pharmacia) ion exchange chromatography at pH 5.2.

Compound	reduction of protease activity on Zymogram gelatin gel
O=S(=O)(F)Cc1ccccc1 [PMSF, phenylmethanesulfonyl fluoride]	significant reduction of protease activity

What follows are compounds tested on CD34+ (assay: CD34+ proliferation assays). Conditions: proteins purified from plants.
Type: cell-based
Protocol: The vectors were used to inoculate plant leaves of different sets of plants as described in the examples above. Both plant homogenates and interstitial fluid were extracted as described above. hSCF and pSCF were each purified from 27 plants to yield 0.85 mg (˜15 mg/kg) and 2.5 mg (˜45 mg/kg) of protein respectively.

Compound	biological activity in CD34+ proliferation assays
hSCF: human Stem Cell growth Factor expressed in plants from GENEWARE vector	biologically active

The compounds below were run on Nicotianalisin (assay: Hydrolysis of synthetic 4-nitroanilide peptide substrates by purified protease). Conditions: not given.

Compound	preferential cleavage of synthetic peptide substrates
N-Suc-AAPM-pNA: synthetic 4-nitroanilide peptide substrate (SMILES CSCC[C@H](NC(=O)[C@@H]1CCCN1C(=O)[C@H](C)NC(=O)[C@H](C)NC(=O)CCC(=O)O)C(=O)Nc1ccc([N+](=O)[O-])cc1)	preferentially cleaved
N-Succinyl-Alanine-Alanine-Proline-Leucine-para-nitroanilide [N-Suc-AAPL-pNA]	preferentially cleaved
N-Succinyl-Alanine-Alanine-Proline-Phenylalanine-para-nitroanilide [N-Suc-AAPF-pNA]	preferentially cleaved
